ChEMBL document CHEMBL5143685, “Valorisation of the diterpene podocarpic acid - Antibiotic and antibiotic enhancing activities of polyamine conjugates” (Bioorg Med Chem, 2022)

What was measured:
Klebsiella pneumoniae = assay: Antibacterial activity against Klebsiella pneumoniae ATCC 700603 assessed as inhibition of bacterial growth measured after 18 hrs by resazurin dye based analysis; format: functional
Escherichia coli [1] = assay: Antibacterial activity against Escherichia coli ATCC 25922 assessed as inhibition of bacterial growth measured after 18 hrs by resazurin dye based analysis; format: functional
Pseudomonas aeruginosa [2] = assay: Antibacterial activity against Pseudomonas aeruginosa ATCC 27853 assessed as inhibition of bacterial growth measured after 18 hrs by resazurin dye based analysis; format: functional
Staphylococcus aureus = assay: Antibacterial activity against methicillin-resistant Staphylococcus aureus ATCC 43300 assessed as inhibition of bacterial growth measured after 18 hrs by resazurin dye based analysis; format: functional
Acinetobacter baumannii = assay: Antibacterial activity against Acinetobacter baumannii ATCC 19606 assessed as inhibition of bacterial growth measured after 18 hrs by resazurin dye based analysis; format: functional
Candida albicans = assay: Antifungal activity against Candida albicans ATCC 90028 assessed as fungal growth inhibition incubated for 36 hrs by resazurin dye based analysis; format: functional
Cryptococcus neoformans = assay: Antifungal activity against Cryptococcus neoformans ATCC 208821 assessed as fungal growth inhibition incubated for 36 hrs by resazurin dye based analysis; format: functional
[3] = Cytotoxicity against HEK293 cells assessed as cell growth inhibition measured after 20 hrs by resazurin dye based assay; format: toxicity; details: human
Escherichia coli [4] = assay: Antibiotic adjuvant activity against Escherichia coli ATCC 25922 assessed as erythromycin MIC measured after 18 hrs in presence of erythromycin; format: functional
[5] = Selectivity index, ratio of IC50 for HEK293 to MIC for methicillin-resistant Staphylococcus aureus ATCC 43300; format: toxicity; details: human, HEK293 cells; read-out: Selectivity Index
Saccharomyces cerevisiae [6] = assay: Antifungal activity against Saccharomyces cerevisiae BY4743 assessed as fungal growth inhibition incubated for 24 hrs by plate reader method; format: functional, organism-based; details: BY4743, 24 h
Saccharomyces cerevisiae [7] = assay: Antifungal activity against Saccharomyces cerevisiae YJM789 assessed as fungal growth inhibition incubated for 24 hrs by plate reader method; format: functional, organism-based; details: YJM789, 24 h
Saccharomyces cerevisiae [8] = assay: Antifungal activity against Saccharomyces cerevisiae PA3-10-3 variant assessed as fungal growth inhibition incubated for 24 hrs by plate reader method; format: functional, organism-based
Pseudomonas aeruginosa [9] = assay: Antibiotic adjuvant activity against Pseudomonas aeruginosa ATCC 27853 assessed as doxycycline MIC measured after 18 hrs in presence of doxycycline; format: functional

Row | Structure (SMILES) | MIC (Klebsiella pneumoniae) [µM] | MIC (Escherichia coli [1]) [µM] | MIC (Pseudomonas aeruginosa [2]) [µM] | MIC (Staphylococcus aureus) [µM] | MIC (Acinetobacter baumannii) [µM] | MIC (Candida albicans) [µM] | MIC (Cryptococcus neoformans) [µM] | IC50 at 20 h [3] [µM] | MIC (Escherichia coli [4]) [µM] | selectivity ratio [5] | IC50 (Saccharomyces cerevisiae [6]) [µM] | IC50 (Saccharomyces cerevisiae [7]) [µM] | IC50 (Saccharomyces cerevisiae [8]) [µM] | MIC (Pseudomonas aeruginosa [9]) [µM]
1 | C[C@]1(C(=O)NCCCNCCCCNCCCNC(=O)[C@@]2(C)CCC[C@]3(C)c4cc(O)ccc4CC[C@@H]23)CCC[C@]2(C)c3cc(O)ccc3CC[C@@H]12.O=C(O)C(F)(F)F.O=C(O)C(F)(F)F | > 33.9 | > 33.9 | > 33.9 | ≤ 0.26 | > 33.9 | > 33.9 | 17 | > 33.9 | 26.5 | > 130 |  |  |  | 
2 | C[C@@]12CCC[C@](C)(C(=O)O)[C@H]1CCc1ccc(OC(=O)CCCNCCCCCCNCCCNC(=O)Oc3ccc4c(c3)[C@@]3(C)CCC[C@](C)(C(=O)O)[C@@H]3CC4)cc12.O=C(O)C(F)(F)F.O=C(O)C(F)(F)F | > 30.2 | > 30.2 | > 30.2 | 30.2 | > 30.2 | 30.2 | 30.2 | > 30.2 |  |  | 3.59 | 14.3 |  | 
3 | C[C@]1(C(=O)O)CCC[C@]2(C)c3cc(OC(=O)CCCNCCCCCCCCCCNCCCNC(=O)Oc4ccc5c(c4)[C@@]4(C)CCC[C@](C)(C(=O)O)[C@@H]4CC5)ccc3CC[C@@H]12.O=C(O)C(F)(F)F.O=C(O)C(F)(F)F | > 28.7 | > 28.7 | > 28.7 | > 28.7 | > 28.7 | > 28.7 | 7.17 | > 28.7 |  |  | 3.59 | 14.3 | > 25 | 
4 | C[C@]1(C(=O)NCCCNCCCCCCCCCCCCN)CCC[C@]2(C)c3cc(O)ccc3CC[C@@H]12.O=C(O)C(F)(F)F.O=C(O)C(F)(F)F | > 43.1 | 43.1 | > 43.1 | 5.4 | 43.1 | 43.1 | 43.1 | 26.2 |  | 4.9 |  |  |  | 
5 | C[C@]1(C(=O)NCCCNCCCCCCCCCCN)CCC[C@]2(C)c3cc(OC(=O)NCCCNCCCCCCCCCCN)ccc3CC[C@@H]12.O=C(O)C(F)(F)F.O=C(O)C(F)(F)F.O=C(O)C(F)(F)F.O=C(O)C(F)(F)F | > 26.7 | > 26.7 | > 26.7 | 26.7 | > 26.7 | > 26.7 | > 26.7 | 20.6 | 3.12 |  |  |  |  | 50
